Source: article PMC6777825, “Differential scanning fluorimetric analysis of the amino-acid binding to taste receptor using a model receptor protein, the ligand-binding domain of fish T1r2a/T1r3” (PLoS ONE, 2019)
Where two headings read alike, the source gives them in different places.

Columns and labels:
[1] = biological target: T1, T1r2a/T1r3 full-length receptor (Oryzias latipes, UniProt A0A173M094+A0A173M0G2); design: method as in PMID 28534491; conditions: ref [11]; cited from earlier work
[2] = biological target: medaka T1r2a/T1r3LBD (Oryzias latipes, UniProt A0A173M094+A0A173M0G2); test: Differential scanning fluorimetry (DSF) thermal shift ligand-binding assay; design: species or system O. latipes; conditions: for ΔTm: average ± s.e.m., n = 4; for effect on thermal stability / Tm shift of T1r2a/T1r3LBD (in words): DSF, 0.1-10 mM amino acid
Experimental: The protein sample was prepared as described previously. Briefly, Drosophila S2 cells (Invitrogen) stably expressing C-terminal FLAG-tagged T1r2aLBD and T1r3LBD [11, 21] were cultured in ExpressFiveSFM (LifeTechnologies) for five days at 27 °C. The T1r2a/T1r3-LBD protein was purified from the culture medium by the use of ANTI-FLAG M2 Affinity Gel (SIGMA). The purified protein was dialyzed against the assay buffer (20 mM Tris-HCl, 300 mM NaCl, 2 mM CaCl2, pH 8.0).
The protein sample (~1 μg) was mixed with Protein Thermal Shift Dye (Applied Biosystems) and 10~10,000 μM concentration of each amino acid in 20 μL of assay buffer and loaded to a MicroAmpR Fast Optical 48-Well Reaction Plate (Applied Biosystems). Specifically, to minimize the changes of the chemical and optical condition, the amino acid solutions were prepared by the exact same buffer used for the final dialysis of the protein, followed by the re-adjustment of the pH to ~ 8.0 by addition of either NaOH or HCl, and mixed with the protein diluted with the same buffer.
Fluorescent intensity was measured by the StepOne Real-Time PCR System (Applied Biosystems). The temperature was raised from 25 °C to 99 °C with a velocity of 0.022 °C/sec. The reporter and quencher for detection were set as “ROX” and “none”, respectively. Apparent melting transition temperature (Tm) was determined by the use of the maximum of the derivatives of the melt curve (dFluorescence/dT) by Protein Thermal Shift Software version 1.3 (Applied Biosystems).
The apparent dissociation constant (Kd-app) derived from the DSF results was estimated based on Eq 1 proposed by Schellman, assuming that the unfolding of the protein is reversible: ΔTm=Tm−T0=TmT0R/ΔH^0ln(1+[L]/Kd-app) (1) where [L] is the ligand concentration; Tm and T0 are the apparent melting transition temperatures in the presence and absence of the ligand; R is the gas constant; ΔH^0 is the enthalpy of unfolding at T0, assuming that there are no significant variations under the tested conditions. If the melt curves show biphasic profiles, the second (or the right side) Tm values were adopted for calculation, as described in the Results section.
For multiple regression analyses shown in Fig 2B, the apparent Tm values determined at different ligand concentrations were fitted to Eq 1 by using KaleidaGraph (Synergy Software), assuming that the change of the dissociation constant accompanied by the Tm shift is negligible.

[3] = system: T1r2a/T1r3LBD; design: method as in Nuemket, Yasui, et al. [11]; conditions: ref Nuemket, Yasui, et al. [11]; read-out: FRET EC50; cited from earlier work
[4] = biological target: T1, T1r2a/T1r3 full-length receptor; test: Ca2+-flux receptor response assay in Flip-In 293 cells stably expressing full-length T1r2a, T1r3 and Gα16-gust44; assay type: cell-based, O. latipes; conditions: for ΔRFU: average ± s.e.m.
Experimental: The Ca^2+-flux assay was performed using Flip-In 293 cell line (Life Technologies) stably expressing full-length T1r2a, T1r3, and Gα16-gust44 as described previously. The response stimulated by either 5 or 10 mM amino acid was represented asΔRFU (delta relative fluorescence unit) defined as the maximum fluorescence intensity induced by the addition of the amino acid, subtracted with that of an assay buffer in the absence of amino acid.

[5] = cited from earlier work; for Hydropathy Index: hydrophobicity/hydrophilicity, ref Kyte & Doolittle, J. Mol. Biol., 157, 105 (1982); for pI: ref Handbook of Chemistry and Physics, CRC Press; for logKd_CW (polarity): transfer from cyclohexane to an aqueous solution, ref Radzicka & Wolfenden, Biochemistry, 27, 1664 (1988); for Es'c (steric effects) / πα (hydrophobicity) / HP (hydration potential): α-substituent group; for Es'c (steric effects) / πα (hydrophobicity): ref Akamatsu et al., J. Pharm. Sci., 83, 1026 (1994); for HP (hydration potential): ref Wolfenden et al., Biochemistry, 20, 849 (1981)
[6] = Tm at 8 or 9 ligand concentrations fitted to Eq 1 (Schellman), fitted parameter ± s.e., read-out: DSF Kd-app
[7] = from ΔTm at 10 mM via Eq 1, T0 326.1 K, ΔH0 72.1 kcal mol-1, read-out: Kd-app estimated at a single ligand concentration
[8] = log 1/Kd-app, converted from S1 Table values (10 mM; L-Ala 1 mM, L-Gln 0.1 mM)
[9] = 5 mM amino acid, n = 6 (n = 12 for L-glutamine)
[10] = estimated from ΔRFU at 5 mM by Hill equation, ΔRFUmax 104.3, read-out: EC50-est
[11] = estimated from ΔRFU at 10 mM by Hill equation, ΔRFUmax 104.3, read-out: EC50-est
[12] = from response at 10 mM, log 1/EC50-est
[13] = read-out: Kd-app estimated at a single ligand concentration, from ΔTm at 0.1 mM via Eq 1, T0 326.1 K, ΔH0 72.1 kcal mol-1
[14] = read-out: Kd-app estimated at a single ligand concentration, from ΔTm at 1 mM via Eq 1, T0 326.1 K, ΔH0 72.1 kcal mol-1
[15] = read-out: Kd-app estimated at a single ligand concentration, from ΔTm at 10 mM via Eq 1, T0 326.1 K, ΔH0 72.1 kcal mol-1
[16] = from response at 10 mM, log 1/EC50-est, read-out: pEC50-est (converted)
[17] = from ΔTm at 0.1 mM via Eq 1, T0 326.1 K, ΔH0 72.1 kcal mol-1, read-out: Kd-app estimated at a single ligand concentration
[18] = from ΔTm at 1 mM via Eq 1, T0 326.1 K, ΔH0 72.1 kcal mol-1, read-out: Kd-app estimated at a single ligand concentration

T1 sequence (A0A173M0G2 entry or part of it): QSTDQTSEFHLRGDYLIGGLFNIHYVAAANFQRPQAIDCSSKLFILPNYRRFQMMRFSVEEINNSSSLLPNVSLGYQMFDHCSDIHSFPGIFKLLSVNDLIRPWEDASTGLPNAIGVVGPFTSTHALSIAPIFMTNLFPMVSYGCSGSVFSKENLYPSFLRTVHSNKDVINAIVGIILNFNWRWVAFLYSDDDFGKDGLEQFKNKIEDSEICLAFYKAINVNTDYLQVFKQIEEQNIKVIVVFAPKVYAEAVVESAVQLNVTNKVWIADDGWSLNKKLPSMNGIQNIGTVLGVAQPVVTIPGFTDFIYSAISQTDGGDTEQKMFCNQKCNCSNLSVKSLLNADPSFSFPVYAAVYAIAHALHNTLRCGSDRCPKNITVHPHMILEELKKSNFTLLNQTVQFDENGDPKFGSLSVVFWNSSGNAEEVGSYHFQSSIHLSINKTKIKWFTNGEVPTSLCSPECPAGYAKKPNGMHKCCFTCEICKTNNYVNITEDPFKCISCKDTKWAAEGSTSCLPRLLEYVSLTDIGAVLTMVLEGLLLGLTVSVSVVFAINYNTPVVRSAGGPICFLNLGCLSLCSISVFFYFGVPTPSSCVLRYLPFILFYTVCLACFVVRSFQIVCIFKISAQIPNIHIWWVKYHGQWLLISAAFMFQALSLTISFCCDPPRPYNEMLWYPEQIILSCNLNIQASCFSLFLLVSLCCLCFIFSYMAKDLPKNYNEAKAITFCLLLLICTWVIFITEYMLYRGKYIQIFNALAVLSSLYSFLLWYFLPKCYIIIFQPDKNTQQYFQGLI
T1 sequence (A0A173M094 entry or part of it): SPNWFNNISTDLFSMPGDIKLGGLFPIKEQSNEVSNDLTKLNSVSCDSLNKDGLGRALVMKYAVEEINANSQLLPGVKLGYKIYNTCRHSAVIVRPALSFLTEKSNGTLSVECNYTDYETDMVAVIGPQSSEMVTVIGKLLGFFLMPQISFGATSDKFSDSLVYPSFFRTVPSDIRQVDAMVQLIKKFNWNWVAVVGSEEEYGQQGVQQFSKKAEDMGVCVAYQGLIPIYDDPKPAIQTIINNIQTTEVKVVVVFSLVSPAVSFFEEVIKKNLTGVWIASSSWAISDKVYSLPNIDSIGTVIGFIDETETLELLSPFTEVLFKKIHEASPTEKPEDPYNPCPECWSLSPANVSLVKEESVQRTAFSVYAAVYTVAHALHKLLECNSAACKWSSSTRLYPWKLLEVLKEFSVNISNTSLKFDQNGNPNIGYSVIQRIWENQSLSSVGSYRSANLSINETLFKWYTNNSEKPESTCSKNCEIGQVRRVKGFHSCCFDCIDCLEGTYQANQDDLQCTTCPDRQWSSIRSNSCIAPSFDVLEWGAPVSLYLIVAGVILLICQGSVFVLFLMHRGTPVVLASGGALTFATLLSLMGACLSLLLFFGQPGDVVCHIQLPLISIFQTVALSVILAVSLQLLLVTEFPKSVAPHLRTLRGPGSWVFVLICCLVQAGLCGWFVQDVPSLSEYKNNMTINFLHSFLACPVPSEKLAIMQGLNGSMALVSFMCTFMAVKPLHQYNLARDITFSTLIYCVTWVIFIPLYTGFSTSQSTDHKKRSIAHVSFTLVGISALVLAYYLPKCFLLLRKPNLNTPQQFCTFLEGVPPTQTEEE
medaka T1r2a/T1r3LBD, sequence (A0A173M094 entry or part of it): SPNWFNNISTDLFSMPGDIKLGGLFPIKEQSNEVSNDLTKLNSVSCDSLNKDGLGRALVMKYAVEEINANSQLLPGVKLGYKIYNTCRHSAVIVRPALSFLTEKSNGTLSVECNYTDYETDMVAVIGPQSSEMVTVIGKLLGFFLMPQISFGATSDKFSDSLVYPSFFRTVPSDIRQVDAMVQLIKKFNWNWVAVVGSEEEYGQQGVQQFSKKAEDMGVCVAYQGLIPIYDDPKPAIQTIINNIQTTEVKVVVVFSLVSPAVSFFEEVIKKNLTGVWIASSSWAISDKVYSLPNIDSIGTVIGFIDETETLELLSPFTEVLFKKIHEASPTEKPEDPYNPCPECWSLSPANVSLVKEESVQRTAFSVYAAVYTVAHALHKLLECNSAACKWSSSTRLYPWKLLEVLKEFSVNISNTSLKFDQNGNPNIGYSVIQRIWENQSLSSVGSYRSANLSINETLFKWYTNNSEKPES
medaka T1r2a/T1r3LBD, sequence (A0A173M0G2 entry or part of it): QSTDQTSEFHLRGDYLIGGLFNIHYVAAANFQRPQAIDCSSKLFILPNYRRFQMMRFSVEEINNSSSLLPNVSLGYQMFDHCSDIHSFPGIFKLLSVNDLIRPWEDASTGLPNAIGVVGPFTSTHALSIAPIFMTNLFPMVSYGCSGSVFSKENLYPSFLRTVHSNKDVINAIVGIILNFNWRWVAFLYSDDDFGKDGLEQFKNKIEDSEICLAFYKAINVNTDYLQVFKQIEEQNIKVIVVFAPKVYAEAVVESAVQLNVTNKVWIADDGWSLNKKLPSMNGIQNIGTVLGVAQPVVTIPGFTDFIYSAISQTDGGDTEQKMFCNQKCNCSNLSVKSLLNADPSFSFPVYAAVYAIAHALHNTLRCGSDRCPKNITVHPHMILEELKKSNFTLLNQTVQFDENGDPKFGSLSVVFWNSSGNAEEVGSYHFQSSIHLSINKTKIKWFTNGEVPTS

Row | SMILES | ΔTm ([2]; 0.1 mM amino acid) [K] | ΔTm ([2]; 1 mM amino acid) [K] | ΔTm ([2]; 10 mM amino acid) [K] | Kd [2, 6] [µM] | potency estimated from few doses [2, 7] [µM] | pKd-app [2, 8] | EC50 [3] [µM] | ΔRFU [4, 9] | ΔRFU ([4]; 10 mM amino acid, n = 6) | EC50 [4, 10] [mM] | EC50 [4, 11] [mM] | pEC50-est [4, 12] | effect on thermal stability / Tm shift of T1r2a/T1r3LBD (in words) [2] | Kd-app fold difference compared with FRET EC50 ([2]; Kd-app from 0.1 mM) [fold] | Kd-app fold difference compared with FRET EC50 ([2]; Kd-app from 1 mM) [fold] | pI [5] | logKd_CW (polarity) [5] | Es'c (steric effects) [5] | πα (hydrophobicity) [5] | HP (hydration potential) [5] | also measured
1 | NC(=O)CCC(N)C(=O)O (stereo in doubt) [D-glutamine] | – | – | – | – | – | – | – | – | – | – | – | – | – | – | – | – | – | – | – | – | full-length receptor response (in words) [1]: significantly weak responses
2 | NCC(=O)O [Gly, glycine] | -0.04 ± 0.12 | -0.15 ± 0.07 | 5.08 ± 0.06 | 3570 ± 4090 | 2220 | 2.65 | 6180 ± 3320 | 13.4 ± 3.45 | 46.2 ± 9.00 | 33.8 | 12.6 | 1.90 | – | – | – | – | – | – | – | – | pEC50-est ([4]; from response at 5 mM, log 1/EC50-est): 1.47
3 | C[C@H](N)C(=O)O [L-Ala, L-alanine] | 0.41 ± 0.09 | 6.92 ± 0.03 | 11.1 ± 0.02 | 54.1 ± 24.5 | – | – | 141 ± 37 | 64.7 ± 12.8 | 90.8 ± 9.46 | 3.06 | 1.49 | – | exhibited large Tm shifts | 4.71 | 0.782 | 6 | -1.33 | -0.2 | 0.28 | 1.94 | Kd-app fold difference compared with FRET EC50 ([2]; Kd-app from 10 mM): 1.91 fold; potency estimated from few doses [2, 13]: 664 µM; potency estimated from few doses [2, 14]: 110 µM; potency estimated from few doses [2, 15]: 269 µM; Hydropathy Index [5]: 1.8; EC50 ([4]; from response at 5 mM, log 1/EC50-est, read-out: pEC50-est (converted)): 3.09 mM; EC50 [4, 16]: 1.48 mM
4 | N=C(N)NCCC[C@H](N)C(=O)O [L-Arg, arginine] | 0.45 ± 0.17 | 6.98 ± 0.08 | 11.0 ± 0.05 | – | – | – | 190 ± 35 | 68.2 ± 5.39 | 63.4 ± 9.85 | – | – | – | thermally stabilized the protein | 3.20 | 0.568 | 10.76 | 4.32 | -0.82 | -0.42 | -19.92 | Kd ([2]; DSF Kd-app, Tm at 8 or 9 ligand concentrations fitted to Eq 1 (Schellman), fitted parameter ± s.e.): 131 ± 66 µM; Kd-app fold difference compared with FRET EC50 ([2]; Kd-app from 10 mM): 1.44 fold; Kd ([2]; pKd-app, log 1/Kd-app, converted from S1 Table values (10 mM; L-Ala 1 mM, L-Gln 0.1 mM)): 275 µM; potency estimated from few doses [2, 13]: 608 µM; potency estimated from few doses [2, 14]: 108 µM; potency estimated from few doses [2, 15]: 274 µM; Hydropathy Index [5]: -4.5; EC50 ([4]; EC50-est, estimated from ΔRFU at 5 mM by Hill equation, ΔRFUmax 104.3): 2.65 mM; EC50 ([4]; EC50-est, estimated from ΔRFU at 10 mM by Hill equation, ΔRFUmax 104.3): 6.44 mM; EC50 ([4]; pEC50-est, from response at 5 mM, log 1/EC50-est): 2.63 mM; EC50 ([4]; pEC50-est, from response at 10 mM, log 1/EC50-est): 6.46 mM
5 | NC(=O)CC[C@H](N)C(=O)O [L-Gln, L-glutamine] | 6.26 ± 0.06 | 10.80 ± 0.05 | 13.6 ± 0.02 | 30.9 ± 5.8 | 119 | – | 11.5 ± 3.4 | 104.3 ± 4.24 | 81.0 ± 4.64 | – | 2.88 | – | – | – | – | – | – | – | – | – | increase of Tm (ΔTm), second Tm ([2]; 300 μM ligand): 8.7 ± 0.1 °C; potency estimated from few doses [2, 17]: 14.1 µM; potency estimated from few doses [2, 18]: 29.2 µM; Kd ([2]; log 1/Kd-app, converted from S1 Table values (10 mM; L-Ala 1 mM, L-Gln 0.1 mM), read-out: pKd-app (converted)): 14.1 µM; ΔRFU ([4]; 5 mM amino acid, n = 6 (n = 12 for L-glutamine), listed as L-glutamine): 104.3; EC50 [4, 16]: 2.88 mM
6 | N[C@@H](CCC(=O)O)C(=O)O [L-Glu, glutamate] | 0.55 ± 0.26 | 0.48 ± 0.14 | 7.06 ± 0.08 | 422 ± 211 | 1050 | 2.98 | 1070 ± 382 | 3.73 ± 1.63 | 30.3 ± 1.85 | – | 24.4 | 1.61 | – | – | – | 3.22 | 2.25 | -0.82 | 0.02 | -10.2 | potency estimated from few doses [2, 17]: 488 µM; potency estimated from few doses [2, 18]: 5700 µM
